Results on 49 molecules are retold here after patent publication US10591497B2, “Immunoassay for synthetic cannabinoids of the adamantyl indazole/indole-3-carboxamide family” (Randox Laboratories Limited, priority 2014, dated 2020).

For this assay, the system named is antibody derived from Immunogen of Example 9. The experiment in a line: Competitive immunoassay (ELISA), IC50 derivation and cross-reactivity. Format: binding, sheep. The settings on record: for % CROSS-REACTIVITY: compared to 100% for AKB48; for % CROSS-REACTIVITY / IC50: Tracer 1 of Example 10; for IC50: Table 2, generated as per AKB48 and Table 1; for binding to the antibodies of the invention: "does not bind" = cross-reactivity of less than 2% vs 100% for AKB48 under Example 12 conditions. On the procedure: All cross-reactivity are measured herein under the experimental conditions of Example 12 and compared to 100% for AKB48.
IgG is extracted from the antisera and immobilised on a 96 well ELISA plate (coated for 2 hours at +37° C. at 10 ug/ml in a Phosphate Buffered Saline pH7.2). Unbound material is removed by washing with Tris Buffered Saline (TBS) containing tween ([…]) over 10 minutes. Standard AKB48 is added at the concentrations quoted in Table 1, followed by detection agent 1 (FIG. 2) at 1/140 k in a dilution buffer. After incubation (60 mins) at +15 to +25° C. to allow a competition reaction to take place, the microtitre plate is washed with TBS containing Tween™ to remove excess reagents. The enzyme substrate […] (125 μl) is added (Kem-en-Tec Cat. No. 4800). After a 20 minute incubation period to allow maximum colour development, the colour reaction is stopped by the addition of sulphuric acid (0.2M, 120 μl). This produces a colour change from blue to yellow, and the absorbances are read at 450 nm. A standard curve is then constructed and the IC50 calculated as the AKB48 concentration which produces 50% inhibition of maximal signal. This process was repeated for synthetic cannabinoid members as stated in Table 2 to assess cross-reactivity.
The cross-reactivity (CR) was calculated using the equation below. All calculations were based upon binding and displacement at the 50% of maximum OD (optical density) binding point. The maximum OD is the signal generated using tracer alone and 50% displacement (inhibition) corresponds to the IC50. […]
The extent of antibody binding to synthetic cannabinoids of various families was assessed (Table 2). For the cross-reactants with IC50 values, standard curves were derived for each analyte (as per AKB48 and Table 1). […] In all cases, the cross-reactivity set out in Table 2 was measured using an antibody derived from the immunogen of Example 9 and Tracer 1 of Example 10.

Setting [1] is: single cross-reactant at 300 ng/ml.
Setting [2] is: standard curve derived for each analyte.

In brackets after ≈: the same amount, converted by molar mass. Where only a bound is given, the exact number is not on record here.

Consider `O=C(O)c1cn(CC2CCCCC2)c2ccccc12` [3-Carboxyindole metabolite of BB-22], for which the “% CROSS-REACTIVITY” value under setting [1] is under 1.00%.
Turning to `CCCCCn1nc(C(=O)NC23CC4CC(CC(O)(C4)C2)C3)c2ccccc21` [3-OH-AKB48, (3-hydroxy-1-adamantyl) 1-pentylindazole-3-carboxamide], the half-inhibitory concentration (IC50) (commonly the concentration at which inhibition is half-maximal) was found to be 0.18 ng/mL (≈ 0.000472 µM). In addition, under setting [2], the “% CROSS-REACTIVITY” value is recorded as 1163.53%.
Molecule `CCCCCn1cc(C(=O)NC23CC4CC(CC(O)(C4)C2)C3)c2ccccc21` [3-OH-SDB001] yielded an IC50 of 4.40 ng/mL (≈ 0.0116 µM). For the same molecule, the “% CROSS-REACTIVITY” value under setting [2] is 47.30%.
Take `O=C(O)c1cn(CCCCCF)c2ccccc12` [3-carboxyindole of 5-fluoro PB-22]: the “% CROSS-REACTIVITY” value under setting [1] is reported as under 1.00%.
The same measure, in the same setting: for `O=C(Oc1cccc2cccnc12)c1cn(CCCCCF)c2ccccc12` [5-fluoro PB-22] the value was under 1.00%.
Same read-out and setting: as for `CC1(C)C(C(=O)c2cn(CC3CCOCC3)c3ccccc23)C1(C)C` [A-834735], the figure is under 1.00%; as for `CC1(C)C(C(=O)c2cn(CCN3CCOCC3)c3ccccc23)C1(C)C` [A-7969260], under 1.00%.
For the molecule `O=C(O)CCCCn1cc(C(=O)C23CC4CC(CC(C4)C2)C3)c2ccccc21` [AB001 N-Pentanoic Acid], the “binding to the antibodies of the invention” value (shortened to “binding to the antibodies”) is listed as “do not bind”. Also, the “% CROSS-REACTIVITY” value under setting [1] is recorded as under 1.00%.
With `O=C(c1cn(CCCCCO)c2ccccc12)C12CC3CC(CC(C3)C1)C2` [AB001 N-Pentanol], the “binding to the antibodies” value is “do not bind”. For the same molecule, under setting [1], the “% CROSS-REACTIVITY” value is given as under 1.00%.
The corresponding values for `CCCCCn1nc(C(=O)N[C@H](C(N)=O)C(C)C)c2ccccc21` [AB Pinaca] are “does not bind” and under 1.00%.
Turning to `O=C(NC12CC3CC(CC(C3)C1)C2)c1nn(CCCCCF)c2ccccc12` [AKB48 N-(5-fluoropentyl)], the IC50 was found to be 2.10 ng/mL (≈ 0.00548 µM). The “% CROSS-REACTIVITY” value under setting [2] amounted to 98.90%.
For `O=C(O)CCCCn1nc(C(=O)NC23CC4CC(CC(C4)C2)C3)c2ccccc21` [AKB48 N-Pentanoic acid (LK1461)], the “binding to the antibodies” value was “do not bind”. Under setting [1], the “% CROSS-REACTIVITY” value is under 1.00%.
Turning to `CCCCCn1cc(C(=O)NC23CC4CC(CC(C4)C2)C3)c2ccccc21` [AKB48, N-(1-adamantyl)-1-pentyl-1H-indole-3-carboxamide], the 50% inhibitory concentration (IC50) was determined as 2.08 ng/mL (≈ 0.00571 µM). Besides, the “% B/B0” value (AKB48 concentration 0.25 ng/ml) stood at 88%. In addition, the “% B/B0” value (AKB48 concentration 0.74 ng/ml) was found to be 69%. In addition, the “% B/B0” value (AKB48 concentration 2.22 ng/ml) is on record as 50%. Besides, under “AKB48 concentration 6.67 ng/ml”, the “% B/B0” value was 26%. The “% B/B0” value (AKB48 concentration 20.00 ng/ml) came to 12%. The “% CROSS-REACTIVITY” value under setting [2] is reported as 100.00%.
As to `N#CCCCCn1cc(C(=O)c2cccc3ccccc23)c2ccccc21` [AM2232], the “% CROSS-REACTIVITY” value under setting [1] is listed as under 1.00%.
As to `O=C(c1ccccc1I)c1cn(CCCCCF)c2ccccc12` [AM-694], the “binding to the antibodies” value is recorded as “does not bind”. The “% CROSS-REACTIVITY” value under setting [1] was under 1.00%.
The corresponding values for `CN1CCCCC1Cn1cc(C(=O)C23CC4CC(CC(C4)C2)C3)c2ccccc21` (centres unmarked) [AM-1248] are “does not bind” and under 1.00%.
For `O=C(c1cccc2ccccc12)c1cn(CCCCCF)c2cc(O)ccc12` [AM-2201 6-Hydroxyindole], the “% CROSS-REACTIVITY” value under setting [1] was under 1.00%.
On to `O=C(c1cccc2ccccc12)c1cn(CCCC(O)CF)c2ccccc12` (centres unmarked) [AM-2201 N-(4-Hydroxypentyl)], for which the “% CROSS-REACTIVITY” value under setting [1] is under 1.00%.
Turning to `O=C(c1cccc2ccccc12)c1cn(CCCCCF)c2ccccc12` [AM-2201], the “% CROSS-REACTIVITY” value under setting [1] is under 1.00%.
As for `O=C(Oc1cccc2cccnc12)c1cn(CC2CCCCC2)c2ccccc12` [BB-22], under setting [1], the “% CROSS-REACTIVITY” value is under 1.00%.
Still for that read-out and setting: as for `CCCCCn1c(C)c(C(=O)c2cccc3ccccc23)c2ccccc21` [JWH-007], the figure is under 1.00%.
On the same count and under the same terms, as for `CCCn1c(C)c(C(=O)c2cccc3ccccc23)c2ccccc21` [JWH-015], the figure is under 1.00%; as for `CCCCCn1cc(C(=O)c2cccc3ccccc23)c2c(O)cccc21` [JWH-018 4-Hydroxyindole], under 1.00%.
The same measure, in the same setting: for `CCCCCn1cc(C(=O)c2cccc3ccccc23)c2cc(O)ccc21` [JWH-018 5-Hydroxyindole] the value was under 1.00%; for `CCCCCn1cc(C(=O)c2cccc3ccccc23)c2ccc(O)cc21` [JWH-018 6-Hydroxyindole], under 1.00%; for `O=C(c1cccc2ccccc12)c1cn(CCCCCO)c2ccccc12` [JWH-018 N-(5-Hydroxypentyl)], under 1.00%.
Take `O=C(O)CCCCn1cc(C(=O)c2cccc3ccccc23)c2ccccc21` [JWH-018 N-Pentanoic acid]: the “% CROSS-REACTIVITY” value under setting [1] is under 1.00%.
For the molecule `CCCCCn1cc(C(=O)c2cccc3ccccc23)c2ccccc21` [JWH-018], the “binding to the antibodies” value is recorded as “do not bind”. The “% CROSS-REACTIVITY” value under setting [1] is given as under 1.00%.
Turning to `CCCCCCn1cc(C(=O)c2cccc3ccccc23)c2ccccc21` [JWH-019], the “% CROSS-REACTIVITY” value under setting [1] is given as under 1.00%.
On the same count and under the same terms, as for `C=CCCCn1cc(C(=O)c2cccc3ccccc23)c2ccccc21` [JWH-022], the figure is under 1.00%; as for `CCCCn1cc(C(=O)c2cccc3ccccc23)c2c(O)cccc21` [JWH-073 4-Hydroxyindole], under 1.00%; as for `CCCCn1cc(C(=O)c2cccc3ccccc23)c2cc(O)ccc21` [JWH-073 5-Hydroxyindole], under 1.00%.
With `CCCCn1cc(C(=O)c2cccc3ccccc23)c2ccccc21` [JWH-073], the “binding to the antibodies” value is on record as “do not bind”. In addition, the “% CROSS-REACTIVITY” value under setting [1] is under 1.00%.
Consider `CCCCCn1cc(C(=O)c2ccc(OC)c3ccccc23)c2ccccc21` [JWH-081], for which, under setting [1], the “% CROSS-REACTIVITY” value is reported as under 1.00%.
As to `O=C(c1cccc2ccccc12)c1cn(CCN2CCOCC2)c2ccccc12` [JWH-200], the “binding to the antibodies” value was “do not bind”. Also, under setting [1], the “% CROSS-REACTIVITY” value is listed as under 1.00%.
The corresponding values for `CCCCCn1cc(C(=O)Cc2ccccc2Cl)c2ccccc21` [JWH-203] are “does not bind” and under 1.00%.
With `CCCCCn1cc(C(=O)c2ccc(CC)c3ccccc23)c2ccccc21` [JWH-210], the “% CROSS-REACTIVITY” value under setting [1] was under 1.00%.
On to `COc1ccccc1CC(=O)c1cn(CCCCCC(=O)O)c2ccccc12` [JWH-250 N-(5-Carboxypentyl)], for which the “binding to the antibodies” value is “do not bind”. In addition, the “% CROSS-REACTIVITY” value under setting [1] was under 1.00%.
The matching figures for `COc1ccccc1CC(=O)c1cn(CCCCCO)c2ccccc12` [JWH-250 N-(5-Hydroxypentyl)]: “do not bind” and under 1.00%.
For the molecule `CCCCCn1cc(C(=O)c2ccc(Cl)c3ccccc23)c2ccccc21` [JWH-398], under setting [1], the “% CROSS-REACTIVITY” value was under 1.00%.
As for `O=C(c1c[nH]c2ccccc12)C12CC3CC(CC(C3)C1)C2` [N-Desalkyl AB001], the “% CROSS-REACTIVITY” value under setting [1] was under 1.00%.
Same read-out and setting: for `CCCCCn1cc(C(=O)O)c2ccccc21` [PB-22 3-Carboxyindole metabolite] the value was under 1.00%.
For `CCCCCn1cc(C(=O)Oc2cccc3cccnc23)c2ccccc21` [PB-22], the “binding to the antibodies” value is given as “does not bind”. Moreover, the “% CROSS-REACTIVITY” value under setting [1] is on record as under 1.00%.
For `CCCCCn1cc(C(=O)c2ccc(OC)cc2)c2ccccc21` [RCS-4], the “binding to the antibodies” value is listed as “does not bind” and the IC50 is 124.55 ng/mL (≈ 0.387 µM). Moreover, the “% CROSS-REACTIVITY” value under setting [2] is listed as 1.67%.
In the case of `COc1ccccc1CC(=O)c1cn(CCC2CCCCC2)c2ccccc12` [RCS-8], the “binding to the antibodies” value is on record as “does not bind”. For the same molecule, under setting [1], the “% CROSS-REACTIVITY” value is recorded as under 1.00%.
For `CCCCCn1cc(C(=O)NC23CC4CC(CC(C4)C2)C3)c2ccccc21` [SDB001], the IC50 amounted to 52.00 ng/mL (≈ 0.143 µM). Also, under setting [2], the “% CROSS-REACTIVITY” value worked out at 4.07%.
For the molecule `O=C(O)CCCCn1cc(C(=O)NC23CC4CC(CC(C4)C2)C3)c2ccccc21` [SDB-001 N-Pentanoic acid (LK1404)], the “binding to the antibodies” value is “do not bind”. Moreover, the “% CROSS-REACTIVITY” value under setting [1] is recorded as under 1.00%.
Consider `O=C(NC12CC3CC(CC(C3)C1)C2)c1cn(CCCCCF)c2ccccc12` [STS135], for which the concentration for half-maximal inhibition (IC50) worked out at 24.76 ng/mL (≈ 0.0647 µM). In addition, the “% CROSS-REACTIVITY” value under setting [2] is given as 8.41%.
On to `CC1(C)C(C(=O)c2cn(CCCCC(=O)O)c3ccccc23)C1(C)C` [UR-144 N Pentanoic acid], for which the “% CROSS-REACTIVITY” value under setting [1] was under 1.00%.
